According to US20180256673A1, “METHODS FOR TREATING FUNGAL INFECTIONS” (priority 2015, published 2018):
Values joined by “and” are separate entries in the source; they are usually repeats but may differ in a detail not shown here. Identical values can stand only once. Like-named read-outs stand apart in the source and are kept apart here. Starred links: 1 amine or outer side, 2 acyl side, 3 side chain; linkers in the order of their positions; H or OH if unused. Positions of bridges follow the written chain, without caps; N, C: chain ends. Non-standard residues stand in square brackets, D forms with d. Residues, ends and D or L forms follow the SMILES beside them. *: point of attachment. Orn(4R-OH,5R-OCH2CH2NMe3+) = C[N+](C)(C)CCO[C@@H](N[*:3])[C@H](O)C[C@H](N[*:1])C(=O)[*:2]; pTerphenylCO(4''-OnC5H11) = CCCCCOc1ccc(-c2ccc(-c3ccc(C(=O)*)cc3)cc2)cc1; hTyr(3S-OH,4S-OH) = N[C@H](C(=O)O)[C@H](O)[C@@H](O)c1ccc(O)cc1; Pro(3S-OH,4S-Me) = C[C@H]1CN[C@H](C(=O)O)[C@H]1O; Hyp = O=C(O)[C@@H]1C[C@@H](O)CN1

How the values were obtained:
[1] = test system: C. glabrata vaginal isolates; assay: Susceptibility testing of VVC clinical isolates at pH 7 and 4 (CLSI M27-A3); format: cell-based, Candida glabrata; details: Nakaseomyces glabratus, 48 h, pH 7
Candida glabrata = assay: microbe, parasite or virus in culture; format: cell-based
Candida tropicalis = assay: Broth microdilution of invasive fungal isolates (CLSI M27-A3/M38-A2); format: cell-based
[2] = test system: C. glabrata ATCC 90030, ATCC 2001; assay: Broth microdilution MIC (CLSI), Examples 3 and 4; details: Nakaseomyces glabratus
Experimental: Antifungal susceptibility testing. Candida strains were cultured aerobically at 35° C. on SDA plates or in RPMI 1640 broth (pH 7.0). […] MIC assays were performed in triplicate.

C. parapsilosis CP02 = format: cell-based, Candida parapsilosis
Experimental: Spontaneous mutant selection. […] Three individual colonies from each strain were used to start cultures in RPMI. […] One milliliter aliquots were spread onto SDA plates containing drug with sterile glass beads. Starting viable count was enumerated by triplicate plating of serial dilutions of the starting inoculum. […] Glycerol stocks of putative mutant colonies were stored at −80° C. […] Spontaneous mutation frequencies were calculated by dividing the number of resistant colonies on a given plate by the starting inoculum plated. A subset of mutants (weighted heavily towards those selected with CMP1) were then evaluated by MIC and sequencing of FKS gene hot spot regions.

[3] = test system: C. parapsilosis vaginal isolates; assay: Susceptibility testing of VVC clinical isolates at pH 7 and 4 (CLSI M27-A3); format: cell-based, Candida parapsilosis

Q: `CCCCCOc1ccc(-c2ccc(-c3ccc(C(=O)N[C@H]4C[C@@H](O)[C@@H](OCC[N+](C)(C)C)NC(=O)[C@@H]5[C@@H](O)[C@@H](C)CN5C(=O)[C@H]([C@@H](C)O)NC(=O)[C@H]([C@H](O)[C@@H](O)c5ccc(O)cc5)NC(=O)[C@@H]5C[C@@H](O)CN5C(=O)[C@H]([C@@H](C)O)NC4=O)cc3)cc2)cc1` [Compound 1] ({pTerphenylCO(4''-OnC5H11)}-[Orn(4R-OH,5R-OCH2CH2NMe3+)]T[Hyp][hTyr(3S-OH,4S-OH)]T[Pro(3S-OH,4S-Me)]; lactam 1-C) was tested. Which MIC90 [1] did it give?
A: 0.25 µg/mL

Q: What about the “Cumulative % of isolates inhibited at MIC 0.015 μg/mL” value (Candida glabrata) of the same compound?
A: (3.0) %

Q: What about the “Cumulative % of isolates inhibited at MIC 0.03 μg/mL” value (Candida glabrata) of the same compound?
A: (62.0) %

Q: And the “Cumulative % of isolates inhibited at MIC 0.06 μg/mL” value (Candida glabrata)?
A: (91.0) %

Q: What about the “Cumulative % of isolates inhibited at MIC 0.25 μg/mL” value (Candida glabrata) of the same compound?
A: (95.0) %

Q: And the “Cumulative % of isolates inhibited at MIC 0.5 μg/mL” value (Candida glabrata)?
A: (95.0) %

Q: What about the “Cumulative % of isolates inhibited at MIC 1 μg/mL” value (Candida glabrata) of the same compound?
A: (96.0) %

Q: And the “Cumulative % of isolates inhibited at MIC 2 μg/mL” value (Candida glabrata)?
A: (99.0) %

Q: And the “Cumulative % of isolates inhibited at MIC 4 μg/mL” value (Candida glabrata)?
A: (100.0) %

Q: And the “Number of isolates inhibited at MIC 0.015 μg/mL” value (Candida glabrata)?
A: 3

Q: And the “Number of isolates inhibited at MIC 0.03 μg/mL” value (Candida glabrata)?
A: 59

Q: And the “Number of isolates inhibited at MIC 0.06 μg/mL” value (Candida glabrata)?
A: 29

Q: And the “Number of isolates inhibited at MIC 0.12 μg/mL” value (Candida glabrata)?
A: 4

Q: And the “Number of isolates inhibited at MIC 0.25 μg/mL” value (Candida glabrata)?
A: 0

Q: And the “Number of isolates inhibited at MIC 0.5 μg/mL” value (Candida glabrata)?
A: 0

Q: And the “Number of isolates inhibited at MIC 1 μg/mL” value (Candida glabrata)?
A: 1

Q: And the “Number of isolates inhibited at MIC 2 μg/mL” value (Candida glabrata)?
A: 3

Q: And the “Number of isolates inhibited at MIC 4 μg/mL” value (Candida glabrata)?
A: 1

Q: What about the MIC50 (Candida glabrata; Nakaseomyces glabratus, read-out: MIC50) of the same compound?
A: 0.03 µg/mL

Q: What about the MIC90 (Candida glabrata; Nakaseomyces glabratus, read-out: MIC90) of the same compound?
A: 0.06 µg/mL

Q: And the MIC (Candida glabrata; Nakaseomyces glabratus, read-out: MIC results)?
A: 2 to 4 µg/mL

Q: And the “Cumulative % of isolates inhibited at MIC 0.015 μg/mL” value (Candida tropicalis; 51 isolates)?
A: (56.9) %

Q: And the “Cumulative % of isolates inhibited at MIC 0.03 μg/mL” value (Candida tropicalis; 51 isolates)?
A: (88.2) %

Q: What about the “Cumulative % of isolates inhibited at MIC 0.06 μg/mL” value (Candida tropicalis; 51 isolates) of the same compound?
A: (100.0) %

Q: What about the “Cumulative % of isolates inhibited at MIC ≤0.008 μg/mL” value (Candida tropicalis; 51 isolates) of the same compound?
A: (3.9) %

Q: And the “Number of isolates inhibited at MIC 0.015 μg/mL” value (Candida tropicalis; 51 isolates)?
A: 27

Q: What about the “Number of isolates inhibited at MIC 0.03 μg/mL” value (Candida tropicalis; 51 isolates) of the same compound?
A: 16

Q: What about the “Number of isolates inhibited at MIC 0.06 μg/mL” value (Candida tropicalis; 51 isolates) of the same compound?
A: 6

Q: What about the “Number of isolates inhibited at MIC ≤0.008 μg/mL” value (Candida tropicalis; 51 isolates) of the same compound?
A: 2

Q: And the MIC50 (Candida tropicalis; Candida tropicalis, 51 isolates, read-out: MIC50)?
A: 0.015 µg/mL

Q: And the MIC90 (Candida tropicalis; Candida tropicalis, 51 isolates, read-out: MIC90)?
A: 0.06 µg/mL

Q: And the “concentration at which all isolates were inhibited” value (Candida tropicalis; n=51)?
A: ≤ 0.06 µg/mL

Q: And the MIC ([2]; ATCC2001|ATCC90030, 24 h, read-out: Broth MIC, ATCC 2001 wild-type, 24 h, ~50% inhibition)?
A: 0.125 µg/mL

Q: What about the MIC ([2]; ATCC2001|ATCC90030, 24 h, read-out: Broth MIC, ATCC 90030 wild-type, 24 h, ~50% inhibition) of the same compound?
A: 0.06 µg/mL

Q: And the MIC ([2]; ATCC2001|ATCC90030, ATCC 2001 spontaneous mutant, Fks2 HS1 D666N)?
A: 0.5 µg/mL

Q: What about the MIC ([2]; ATCC2001|ATCC90030, ATCC 2001 spontaneous mutant, Fks2 HS1 D666Y) of the same compound?
A: 0.5 µg/mL

Q: What about the MIC ([2]; ATCC2001|ATCC90030, ATCC 2001 spontaneous mutant, Fks2 HS1 R665G) of the same compound?
A: 0.5 µg/mL

Q: And the MIC ([2]; ATCC2001|ATCC90030, ATCC 2001 spontaneous mutant, Fks2 HS1 S663F)?
A: 1 µg/mL

Q: And the MIC ([2]; ATCC2001|ATCC90030, ATCC 2001 spontaneous mutant, Fks2 HS1 ΔF659)?
A: 2 µg/mL

Q: What about the MIC ([2]; ATCC2001|ATCC90030, ATCC 2001 spontaneous mutant, Fks2 HS2 R1378S) of the same compound?
A: 0.25 µg/mL

Q: What about the MIC ([2]; ATCC2001|ATCC90030, ATCC 90030 spontaneous mutant, Fks2 HS1 D666H) of the same compound?
A: 0.25 µg/mL

Q: And the MIC ([2]; ATCC2001|ATCC90030, ATCC 90030 spontaneous mutant, Fks2 HS1 ΔF659)?
A: 2 µg/mL

Q: And the Median mutation frequency (C. parapsilosis CP02)?
A: 2.08E−08

Q: What about the Plate concentration (C. parapsilosis CP02; SDA, minimum concentration to cleanly inhibit growth) of the same compound?
A: 8 µg/mL

Q: And the “Freq. (replicate mutation frequency)” value (C. parapsilosis CP02; replicate plates 1-3, listed as CMP1)?
A: 2.08E−08 (2×) and 9.62E−09

Q: And the MIC90 ([3]; 24 h, pH 4)?
A: 2 µg/mL

Q: What about the MIC90 ([3]; 24 h, pH 7) of the same compound?
A: 2 µg/mL

Q: What about the MIC90 ([3]; 48 h, pH 4) of the same compound?
A: 2 µg/mL

Q: What about the MIC90 ([3]; 48 h, pH 7) of the same compound?
A: 4 µg/mL
